System: grass carp pituitary cells
Assay: Receptor antagonist / pathway inhibitor co-treatment on HK2-induced mRNA expression in grass carp pituitary cells
Assay type: cell-based, grass carp (Ctenopharyngodon idellus)
Conditions: 24 h co-treatment
Experimental: In this experiment, a pharmacological approach was used to clarify the receptor specificity for SLα and PRL regulation by HK2. Pituitary cells were incubated for 24 h with grass carp HK2 (1 μM) with simultaneous treatment of the NK1R antagonist Rolaptiant (10 μM) or NK3R antagonist SB222200 (10 μM), respectively.
Figure 7 The receptor specificity and signal transduction for PRL and SLα regulation by HK2 in grass carp pituitary cells. (A) Effects of NKR subtype-specific antagonists on HK2-induced PRL and SLα mRNA expression. Pituitary cells were challenged for 24 h with grass carp HK2 (1 μM) in the presence or absence of the NK1R antagonist Rolaptiant (10 μM) or NK3R antagonist SB22200 (10 μM), respectively. (B) Effects of 24-h co-treatment with AC inhibitor MDL12330A (10 μM) or PKA inhibitor H89 (10 μM) on HK2-induced PRL and SLα mRNA expression. (C) Effects of 24-h co-treatment with PLC inhibitor U73122, PKC inhibitor GF109203X (10 μM), or IP3 receptor blocker 2-APB (10 μM) on HK2-induced PRL and SLα mRNA expression. (D) Effects of 24-h co-treatment with the VSCC inhibitor nifedipine (10 μM), CaM antagonist calmidazolium (1 μM) or CaMK-II blocker KN62 (10 μM) on HK2-induced PRL and SLα mRNA expression. After drug treatment, the total RNA of the cells was extracted by the Trizol method, and the expression of various genes was detected by RT-PCR. Data presented were expressed as mean ± SEM, and the differences between groups were significant at p-value < 0.05 by labeling diverse letters.
Figure 8 The receptor specificity and signal transduction for CART2, NMB1, and UTS1 regulation by HK2 in grass carp pituitary cells. (A) The pituitary cells were treated for 24 h with grass carp HK2 (1 μM) in the presence or absence of NK1R antagonist Rolaptiant (10 μM) or NK3R antagonist SB222200 (10 μM). (B) Effects of 24-h co-treatment with an AC inhibitor MDL12330A (10 μM) or PKA inhibitor H89 (10 μM) on HK2-induced CART2, UTS1, or NMB1 mRNA expression. (C) Effects of 24h co-treatment with a PLC inhibitor U73122, PKC inhibitor GF109203X (10 μM), or IP3 receptor blocker 2-APB (10 μM) on HK2-induced CART2, UTS1 or NMB1 mRNA expression. (D) Effects of 24-h co-treatment with the VSCC inhibitor nifedipine (10 μM), CaM antagonist calmidazolium (1 μM), or CaMK-II blocker KN62 (10 μM) on HK2-induced CART2, UTS1 or NMB1 mRNA expression.

| SMILES | effect on HK2-induced CART2 mRNA expression (inhibitor 10 μM with HK2 1 μM) | effect on HK2-induced NMB1 mRNA expression (inhibitor 10 μM with HK2 1 μM) | effect on HK2-induced PRL mRNA expression (inhibitor 10 μM with HK2 1 μM) | effect on HK2-induced SLα mRNA expression (inhibitor 10 μM with HK2 1 μM) | effect on HK2-induced UTS1 mRNA expression (inhibitor 10 μM with HK2 1 μM) | effect on HK2-induced CART2 mRNA expression (inhibitor 1 μM with HK2 1 μM) | effect on HK2-induced NMB1 mRNA expression (inhibitor 1 μM with HK2 1 μM) | effect on HK2-induced PRL mRNA expression (inhibitor 1 μM with HK2 1 μM) | effect on HK2-induced SLα mRNA expression (inhibitor 1 μM with HK2 1 μM) | effect on HK2-induced UTS1 mRNA expression (inhibitor 1 μM with HK2 1 μM) |
| --- | --- | --- | --- | --- | --- | --- | --- | --- | --- | --- |
| NCCOB(c1ccccc1)c1ccccc1 [2-APB] | effective in blocking | effective in blocking | totally abolished | totally abolished | effective in blocking | – | – | – | – | – |
| CN(C)CCCn1cc(C2=C(c3c[nH]c4ccccc34)C(=O)NC2=O)c2ccccc21 [GF109203X] | effective in blocking | effective in blocking | totally abolished | totally abolished | effective in blocking | – | – | – | – | – |
| O=S(=O)(NCCNC/C=C/c1ccc(Br)cc1)c1cccc2cnccc12 [H89] | abolished | abolished | effective in blocking | effective in blocking | abolished | – | – | – | – | – |
| CN([C@@H](Cc1ccc(OS(=O)(=O)c2cccc3cnccc23)cc1)C(=O)N1CCN(c2ccccc2)CC1)S(=O)(=O)c1cccc2cnccc12 [KN62] | suppressed/totally abolished | suppressed/totally abolished | suppressed or totally abolished | suppressed or totally abolished | suppressed/totally abolished | – | – | – | – | – |
| Cl.c1ccc(C2CCCC2NC2=NCCCCCCCCCCC2)cc1 (stereo not drawn) [MDL12330A] | abolished | abolished | effective in blocking | effective in blocking | abolished | – | – | – | – | – |
| C[C@@H](OC[C@@]1(c2ccccc2)CC[C@]2(CCC(=O)N2)CN1)c1cc(C(F)(F)F)cc(C(F)(F)F)c1 [Rolaptiant] | – | not with the NK1R antagonist Rolaptiant | could not be totally abolished | only partially block | – | – | – | – | – | – |
| CC[C@H](NC(=O)c1c(C)c(-c2ccccc2)nc2ccccc12)c1ccccc1 [SB222200] | totally abolished | totally abolished | could not be totally abolished | totally blocked | totally abolished | – | – | – | – | – |
| COc1ccc2c(c1)CC[C@@H]1[C@@H]2CC[C@]2(C)[C@@H](NCCCCCCN3C(=O)C=CC3=O)CC[C@@H]12 [U73122] | effective in blocking | effective in blocking | totally abolished | totally abolished | effective in blocking | – | – | – | – | – |
| Clc1ccc(C(c2ccc(Cl)cc2)n2cc[n+](CC(OCc3ccc(Cl)cc3Cl)c3ccc(Cl)cc3Cl)c2)cc1 (stereo not drawn) [calmidazolium] | – | – | – | – | – | suppressed/totally abolished | suppressed/totally abolished | suppressed or totally abolished | suppressed or totally abolished | suppressed/totally abolished |
| COC(=O)C1=C(C)NC(C)=C(C(=O)OC)C1c1ccccc1[N+](=O)[O-] [nifedipine] | suppressed/totally abolished | suppressed/totally abolished | suppressed or totally abolished | suppressed or totally abolished | suppressed/totally abolished | – | – | – | – | – |
